Drawing on ChEMBL document CHEMBL5726505, “Heteroaryl compounds as IRAK inhibitors and uses thereof” (2017), this text covers IC50 for four compounds.

As usually defined, the IC50 is the concentration at which inhibition is half-maximal.

The assay deals with T1, Interleukin-1 receptor-associated kinase 4 (Homo sapiens, UniProt Q9NWZ3).
T1 sequence (Q9NWZ3 whole entry): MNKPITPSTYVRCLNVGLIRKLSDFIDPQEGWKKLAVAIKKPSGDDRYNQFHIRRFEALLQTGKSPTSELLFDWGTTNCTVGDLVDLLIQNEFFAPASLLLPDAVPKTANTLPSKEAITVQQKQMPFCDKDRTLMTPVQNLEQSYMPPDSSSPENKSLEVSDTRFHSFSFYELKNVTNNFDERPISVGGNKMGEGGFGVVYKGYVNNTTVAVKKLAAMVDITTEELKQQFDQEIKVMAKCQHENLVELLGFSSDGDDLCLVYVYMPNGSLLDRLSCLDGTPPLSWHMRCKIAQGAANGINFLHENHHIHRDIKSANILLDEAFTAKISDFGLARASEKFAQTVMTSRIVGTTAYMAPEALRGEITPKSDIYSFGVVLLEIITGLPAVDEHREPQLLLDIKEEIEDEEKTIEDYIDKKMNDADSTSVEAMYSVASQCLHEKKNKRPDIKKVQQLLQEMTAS
Put plainly: Enzymatic Assay: IRAK4 is a human purified recombinant enzyme (His-TEV-[…] ([…]). IRAK4 hydrolyses ATP, autophosphorylates and phosphorylates a Serine/Threonine generic peptidic substrate (STK: 61ST1BLC from CisBio International based in Bagnols/Cèze FR).Measurement of IRAK-4 inhibition was performed in streptavidin coated 384well FlashPlate (PerkinElmer #SMP410A). His-TEV-IRAK4 (20 ng/well), ATP (2 μM, [33P]ATP 0.25 µCi/well), STK1-biotin peptide (300 nM) and compounds in DMSO (range of concentrations from 20 µM to 1 nM) or controls (2% DMSO) were incubated for 3 hours at 30° C. in assay buffer: Hepes pH7.0 50 mM, Fatty acid-free BSA 0.1%, Dithiothreitol DTT 2 mM, MgCl2 10 mM, EGTA 0.5 mM, Tween-20 0.01%, MnCl2 5 mM.
For `Cn1cc(-c2cccc(-c3ncc(-c4cnn(C)c4)c(N[C@H]4CCN(S(C)(=O)=O)C4)n3)c2)cn1`, the IC50 is below 100 nM.

`Cn1cc(-c2cccc(-c3ncc(-c4cnn(C)c4)c(NCC4CCCN(C(=O)OC(C)(C)C)C4)n3)c2)cn1` (centres undefined): the IC50 was above 5000 nM.

On to `Cc1nnc(-c2cnc(-c3cccc(-c4cnn(C)c4)c3)nc2NC2CCN(S(C)(=O)=O)CC2)s1`, for which the IC50 is below 100 nM. Under `Cn1cc(-c2cccc(-c3ncc(-c4ccn(C)n4)c(O[C@@H]4CCC[C@@H](N)[C@@H]4O)n3)c2)cn1` stands below 100 nM.
